Melting point data for 89 compounds are collected here from a melting point compilation (Tetko et al.; mined from patent text by program, amines drawn as free bases though some values may be those of a salt).

The compound `Cn1nccc1C(=O)Nc1cc(Oc2ccc3nc(NC(=O)C4CC4)cn3n2)ccc1F` had a melting point of 253 °C.
Under `CN1CCN(c2cc(Cl)cc3c2c(=O)n(Cc2ccc([N+](=O)[O-])cc2)c(=O)n3Cc2ccccc2)CC1` stands 109 to 113 °C; under `CCOCCOc1c(C)cc(Oc2ccc3c(c2)C=C(C(=O)O)CCS3(=O)=O)cc1C`, 149 to 153 °C; under `COC(=O)c1ccc2oc(=O)n(Cc3cccc(-c4ncc(OCCCN(C)C)cn4)c3)c2c1`, 125 °C.
Compound `COC(=O)c1ccc(C(=O)NNC(=O)c2ccc(C(=O)OC)cc2)cc1` yielded a melting point of 287 to 290 °C.
For the compound `Cc1nc2c(N)nc3cnccc3c2n1CC(C)C`, the melting point is 322 to 324 °C.
Take `CS(=O)(=O)OCC(O)(CC(Cl)(Cl)Cl)c1cc(Cl)cc(Cl)c1` (centres undefined): the melting point is 99 to 104 °C.
`NS(=O)(=O)C=Cc1ccc(Cl)c(Cl)c1` gave a melting point of 127 to 130 °C.
As for `CC(C)(C)c1cc(-c2nn(CCO)c3ncccc23)cc(C(C)(C)C)c1O`, the melting point lay in the range of 135 to 137 °C.
On to `CCCCCCCCCCC#Cc1cccc([C@H]2O[C@@H]2CO)c1`, for which the melting point lay in the range of 41 to 42 °C.
Compound `O=C(O)c1cn(-c2ccc(F)cc2F)c2c(F)c(N3Cc4cccc(Cl)c4C3)c(F)cc2c1=O` had a melting point of 256 to 260 °C.
`CSCCC(=O)Nc1ccc(-n2nc(C(F)(F)F)cc2C(F)(F)F)cc1` returned a melting point of 122 to 123 °C.
Under `CCOC(=O)C(Cc1ccc(OC)c(OC)c1)NC(=O)c1ccccc1` (centres undefined) stands 82 to 83 °C; under `CCCCCCCOc1ccc(-c2ncc(C#N)cn2)cc1`, 102 °C; under `Cn1ncc(/C=C/C(=O)Nc2ccc(CN)cc2)c1-c1ccc(F)cc1`, 201 to 202 °C.
Compound `CC(=O)OC1CSC(Oc2ccc3sc(C)nc3c2)C(OC(C)=O)C1OC(C)=O` (centres undefined) registered a melting point of 158 °C.
The compound `CN1CCC(NNC(=O)c2ccccc2)CC1` came in with a melting point of 149 to 150 °C.
In the case of `CC(=O)n1ncc2cc(C)c([N+](=O)[O-])cc21`, the melting point is 180 to 182 °C.
With `CCCCCCCCCCCCCCc1ccc2c(c1)C(=O)C(=O)N2`, the melting point is 87 to 89 °C.
Take `O=c1cc(-c2cccc(Br)c2)sc(N2CCOCC2)c1`: the melting point fell in the range of 181 to 182 °C.
With `CCOC(=O)c1cnc(Cl)cc1NC`, the melting point lay within 61.4 to 63.1 °C.
For `CCCC(C)(C)NC(=S)Nc1cc(Cl)cc(Cl)c1` the value was 115 to 117 °C; for `CCOC(=O)C1=C(C(F)(F)F)COc2ccc3ccccc3c21`, 246 to 249 °C; for `Cn1c(=O)c2c(ncn2CCCCC(=O)CBr)n(C)c1=O`, 106 to 109 °C.
As to `CC(C)(O)CCCCc1ccc(CCc2ccc(O)c(O)c2)cc1`, the melting point is 124 to 126 °C.
The compound `CN(C)Cc1nnc2n1-c1ccccc1C(c1ccccc1)=NC2` showed a melting point of 181 to 182 °C.
Take `O=c1c(O)c(-c2ccccn2)oc2ccc(OCc3ccc(F)cc3)cc12`: the melting point lay within 204 to 205 °C.
For `C=C(Cl)COc1ccc(Br)cc1CN(CC)c1ccc(C(=O)O)cn1`, the melting point was in the range of 207 to 209 °C.
`CCn1c(=O)c2nc(C=O)cn2c2ccccc21` registered a melting point of 302 to 306 °C.
In turn, `CC1=CC(c2cccc(Br)c2)C2=C(CCCC2=O)N1` (centres undefined) returned a melting point of 187 to 191 °C.
Under `O=C(c1cc(C(F)(F)F)cc(C(F)(F)F)c1)N1CCN(C(=O)CN2CC3CC2CN3Cc2ccccc2)C(c2ccc(Cl)c(Cl)c2)C1` (racemic) stands 75 to 77 °C; under `CC1(C)OC[C@H](Cc2ccccc2)N1C(=O)Cn1cc(-c2ccc(-c3ccccc3)cc2)cn1`, 150 to 151 °C.
For `CC(=O)OC1CCC2(C)C(=CCC3C2CCC2(C)C(C(C)C(O)CCC(C)(C)C)CCC32)C1` (centres undefined) the value was 185 to 187 °C.
On to `Cc1ccccc1-c1cc(C#N)cc2c1OC(CN)C2` (centres undefined), for which the melting point is 127 to 129 °C.
For `CCOc1nc(NCc2ccco2)nc(Nc2ccccc2-c2cccnc2)n1` the value was 90 to 92 °C; for `N#CC(N)COc1ccc(Oc2ccccc2)cc1` (centres undefined), 76.7 °C; for `COc1cccc(C(O)CNCCc2ccc(OC)c(OC)c2Cl)c1` (centres undefined), 95.5 to 96.5 °C.
On to `Cc1ccc(C2c3c(C)c(N4C(=O)c5cc(Cl)c(Cl)cc5C4=O)c(C)c(C)c3OC2(C)C)cc1` (centres undefined), for which the melting point lay in the range of 157 to 159 °C.
The compound `COc1ncccc1-c1ncc(OC2SCC(O)C(O)C2O)cc1F` (centres undefined) registered a melting point of 141 °C.
Turning to `O=C(c1ccc(Cl)cc1)P1(=O)Oc2ccccc2-c2ccccc21` (centres undefined), the melting point is 125 to 131 °C.
As for `BrCCNC(c1ccccc1)(c1ccccc1)c1ccccc1`, the melting point was in the range of 108 to 109 °C.
As to `C=CCSc1ccc(OC)nn1`, the melting point was in the range of 25 to 27 °C.
Under `CCOC(=O)N1CCC(Nc2nc3cccnc3n2Cc2ccc(CC)o2)CC1` stands 111 °C.
`CCCn1c(=O)c2[nH]c(/C=C/c3cc(Br)c(OC)c(OC)c3)nc2n(CCC)c1=O` gave a melting point of 277 to 278 °C.
`Cc1nc(-n2cnn(Cc3ccc(OC(F)F)cc3)c2=O)sc1C(=O)NCc1cccnc1` registered a melting point of 151 to 152 °C.
For `Cc1c(C)c2c(c(C)c1NC(=O)OCC(Cl)(Cl)Cl)C(c1ccc(C(C)C)cc1)CO2` (centres undefined) the value was 137 to 140 °C.
`C=CCN1CCC2(CC1)c1ccccc1C(=O)c1c(OC)cccc12`: the melting point lay in the range of 115 to 117 °C.
In the case of `CS(=O)(=O)CCS(=O)(=O)C1CCCCC1`, the melting point was in the range of 89 to 91 °C.
Compound `O=C(O)Cc1c(C(=O)c2cccnc2)[nH]c2cc(Cl)ccc12` had a melting point of 267 to 268 °C.
With `FC(F)(F)c1cccc(Oc2nccc(-c3ccc(Cl)c(Cl)c3)n2)c1`, the melting point is 106 °C.
Under `Cc1ccc2c(-c3cc(C(C)(C)C)c(O)c(C(C)(C)C)c3)nn(C)c2n1` stands 178 to 181 °C; under `O=C(O)c1cc2cc(Cl)ccc2nc1NC(Cc1ccc(C#Cc2ccccc2)cc1)C(=O)O` (centres undefined), 164 to 173 °C.
Take `COC1=NC2OC(C(O)c3ccc(Cl)cc3Cl)=C(N)C2C=C1` (centres undefined): the melting point was in the range of 259 to 260 °C.
`O=C(CCN1CCN(c2ccc(F)cc2)CC1)c1cnn2c1CCCC2` displayed a melting point of 141 to 142 °C.
`COc1cc(N)c(Cl)cc1C(=O)NC[C@H]1CCN(CCCCCC(=O)c2ccccc2)C[C@H]1OC` (relative stereo): the melting point is 99 to 101 °C.
`CCOC(=N)c1ccc(-c2cc3ncn([C@H](C)[C@](O)(Cn4cncn4)c4ccc(F)cc4F)c(=O)c3s2)cc1` registered a melting point of 158 to 161 °C.
`OCCCCCCCCCCCCCCCCN(CCO)CCO`: the melting point lay within 67.6 to 68.8 °C.
`COC(=O)c1ccc(Cn2c(C)cn(C3CCc4ccccc4C3)c2=S)cc1` (centres undefined) showed a melting point of 140 to 141 °C.
As to `O=C1CCC(=O)C(c2cccc(Cl)c2)N1` (centres undefined), the melting point was 144 to 147 °C.
As for `Cc1ccc(C(=CC=O)c2ccc(C)cc2)cc1`, the melting point was 92 to 93.5 °C.
Compound `O=C(CN1CC=C(c2c[nH]c3cc(Cl)ccc23)CC1)Nc1ccccn1` returned a melting point of 202 to 204 °C.
Under `CN1CC(CCCl)Oc2ccccc2C1=O` (centres undefined) stands 97 to 107 °C; under `CCCc1c(C(=O)NCc2ccc(-c3ccc(OCC(=O)O)cc3)cc2)cnn1-c1ccccc1`, 190 to 192 °C; under `c1ccc2c(-c3cnc(CCC4CCCCN4)s3)c[nH]c2c1` (centres undefined), 155 to 157 °C.
For the compound `Cc1nc(=O)[nH]c2c(-c3ccccc3)[nH]c(C)c12`, the melting point lay in the range of 290 to 294 °C.
Turning to `N#Cc1cc2cc(Br)ccc2nc1Cl`, the melting point was in the range of 228 to 230 °C.
The compound `O=C1C(=Cc2ccc(Cl)c(Cl)c2)CSCC1=Cc1ccc(Cl)c(Cl)c1` yielded a melting point of 151 to 152 °C.
For `Cc1ccc(-c2c(NS(=O)(=O)c3ccc(C(C)(C)COC4CCCCO4)cc3)ncnc2OCCOc2ncc(Br)cn2)cc1` (centres undefined) the value was 138 to 139 °C.
Turning to `COc1ncccc1-c1cccn2nc(Nc3ccc(C4CCN(C(=O)OC(C)(C)C)CC4)cc3)nc12`, the melting point was 101 to 103 °C.
`O=C(Nc1ccccc1C(=O)N1CCCCC1)N[C@@H](Cc1ccc(NC(=O)c2c(Cl)cccc2Cl)cc1)C(=O)O` gave a melting point of 191 °C.
Consider `Cc1ccc(C(O)(c2ccc(C)cc2)C2CCNCC2)cc1`, for which the melting point lay in the range of 150 to 153 °C.
The compound `Cc1ccccc1CN(O)C(=O)C(C)(C)CCl` displayed a melting point of 112 to 113 °C.
Under `OC[C@H]1CCc2cccc(O)c2O1` stands 131 to 132 °C.
Compound `O=C(NCc1ccc(F)c(F)c1)c1ccnc(N2CCN(Cc3ccccn3)C2=O)c1` yielded a melting point of 143 to 145 °C.
Compound `Nc1nc(SCCC(=O)c2ccccc2)c2[nH]cnc2n1` came in with a melting point of 204 to 205 °C.
Regarding `COc1ccc(F)c(N)c1`, the melting point lay within 27 to 28 °C.
The compound `CCOC(=O)C1=C(C)NC(CN2C(=O)c3ccccc3C2=O)=C(C(=O)OCC)C1c1ccccc1Cl` (centres undefined) yielded a melting point of 166 °C.
For `COC(=O)c1ccc(CCC(CS(=O)(=O)c2ccc(Oc3ccc(OC(F)(F)F)cc3)cc2)N(O)C=O)cc1` (centres undefined) the value was 153 to 154 °C.
On to `Cc1nnc(SCC(=O)C23CC4CC(CC(C4)C2)C3)n1C`, for which the melting point lay within 113 to 114 °C.
The compound `CC(C)N(C=Nc1ncc(Oc2ccc(Cl)cc2)c(Cl)n1)C(C)C` had a melting point of 135 to 136 °C.
Compound `CCc1c(Cl)sc2[nH]c(=O)c(=O)[nH]c12` registered a melting point of 282 to 284 °C.
As to `CCN(CCO[N+](=O)[O-])C(=O)COC(=O)[C@@H](C)c1ccc2cc(OC)ccc2c1`, the melting point was 60 to 61 °C.
Regarding `O=C(O)CCc1cn(Cc2cc(OCc3ccccc3)cc(OCc3csc(-c4cnccn4)n3)c2)cc1-c1ccccc1`, the melting point lay within 109 to 110 °C.
Take `CCCCC[C@H]1CC[C@H](c2ncc([C@H]3CC[C@H](CCC)CC3)cn2)CC1`: the melting point is 98 °C.
Compound `COC(=O)C(=NO)c1nc2ccc(C)cc2oc1=O` showed a melting point of 189 to 190 °C.
The compound `O=C(O)c1csc(-c2ccccc2O)n1` displayed a melting point of 268 to 269 °C.
For `CCCCCCCCCCCCCCCCSCC(CNS(=O)(=O)CCCI)n1nnnc1C` (centres undefined), the melting point lay within 63.5 to 65.5 °C.
Compound `c1ccc2c(C3CCC4(CC3)OCCO4)c[nH]c2c1` gave a melting point of 163 to 165 °C.
Take `O=C1NCc2c(cccc2Oc2ccccc2)N1`: the melting point fell in the range of 278 to 280 °C.

A word on the melting point: it is the temperature of the solid-liquid transition.
